# Test results published in publication PMC6242746 (Chemistry, an Asian journal, 2018).
# Experiments:
# HeLa cells = assay: Percentage of peptide remained in HeLa cell lysate; type: in vitro ADME; details: 200 μM alone or with 100 nM BTZ, 1 h; cell lysate or culture medium
# [1] = Self-assembly: hydrogelation and nanofiber formation; type: physicochemical; details: 500 μM, TEM images
Substance,Degradation in HeLa cells compared with 1 (in words) (HeLa cells),Nanofiber formation (TEM) [1]
Nap-Phe-Phe-Asn [compound 2],degrade slower than 1,can form nanofibers
Nap-Phe-Phe-Glu [compound 3],degrade slower than 1,can form nanofibers
